Measurements from article PMC11587510, “Aromatic Amino Acid Hydroxylases as Off-Targets of Histone Deacetylase Inhibitors” (ACS Chemical Neuroscience, 2024).
“And” between values parts separate entries of the source, which are not always exact repeats. Equal values may be shown once. Read-outs that look alike come from different tables or passages of the source.

Assays:
human PAH = target: T1, human PAH (Homo sapiens, UniProt P00439); assay: PAH enzyme activity assay (HPLC, L-Tyr); type: biochemical
T1 construct: Full-length human TH isoform 1 (TH1), human PAH, human TPH2, and doubly truncated human TPH1; made in house; host or cells: E. coli TB1
T1 sequence (P00439 1-452): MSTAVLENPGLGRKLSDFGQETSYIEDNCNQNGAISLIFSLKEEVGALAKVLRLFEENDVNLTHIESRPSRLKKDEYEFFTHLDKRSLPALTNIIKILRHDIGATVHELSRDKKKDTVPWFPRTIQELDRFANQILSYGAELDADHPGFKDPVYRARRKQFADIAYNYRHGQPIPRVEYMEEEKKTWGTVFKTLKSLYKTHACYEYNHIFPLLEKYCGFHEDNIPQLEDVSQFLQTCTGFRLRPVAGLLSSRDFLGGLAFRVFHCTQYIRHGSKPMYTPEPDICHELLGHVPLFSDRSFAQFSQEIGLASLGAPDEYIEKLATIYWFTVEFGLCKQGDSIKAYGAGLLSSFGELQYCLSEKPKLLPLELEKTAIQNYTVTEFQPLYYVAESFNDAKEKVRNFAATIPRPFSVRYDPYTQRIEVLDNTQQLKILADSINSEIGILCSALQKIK

[1] = target: T2, doubly truncated human TPH1 (ΔNH102-ΔCOOH402) (Homo sapiens, UniProt P17752); assay: TPH1 enzyme activity assay (HPLC, 5-OH-Trp); type: biochemical; conditions: best-fit IC50 (± SE), nonlinear regression; N.A. = no activity
T2 construct: doubly truncated human TPH1 (ΔNH102-ΔCOOH402); made in house; host or cells: E. coli BL21(DE3)
T2 sequence (P17752 102-402, stated change not applied): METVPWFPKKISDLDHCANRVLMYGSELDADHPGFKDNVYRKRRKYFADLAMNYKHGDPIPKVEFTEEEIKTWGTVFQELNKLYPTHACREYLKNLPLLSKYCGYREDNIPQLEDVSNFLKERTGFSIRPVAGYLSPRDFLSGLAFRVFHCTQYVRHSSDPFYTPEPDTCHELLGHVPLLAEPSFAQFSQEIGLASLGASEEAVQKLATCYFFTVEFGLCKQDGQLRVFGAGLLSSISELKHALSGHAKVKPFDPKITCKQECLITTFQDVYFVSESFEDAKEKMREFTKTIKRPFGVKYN

HDAC 6 = conditions: human recombinant HDAC; ref 6 (10.1002/cmdc.201800238); cited from earlier work
human TH isoform 1 (TH1) = target: T3, human TH isoform 1 (TH1) (Homo sapiens, UniProt P07101); assay: TH enzyme activity assay (HPLC, L-DOPA); type: biochemical; conditions: best-fit IC50 (± SE), nonlinear regression; N.A. = no activity
T3 construct: Full-length human TH isoform 1 (TH1); His6-ZZ fusion partner (one of the two preparations only) (cleaved yes); made in house; host or cells: E. coli BL21(DE3) pLysS (pET3a) or BL21 CodonPlus (pET-ZZ-1a)
T3 sequence (P07101 1-497 isoform P07101-3): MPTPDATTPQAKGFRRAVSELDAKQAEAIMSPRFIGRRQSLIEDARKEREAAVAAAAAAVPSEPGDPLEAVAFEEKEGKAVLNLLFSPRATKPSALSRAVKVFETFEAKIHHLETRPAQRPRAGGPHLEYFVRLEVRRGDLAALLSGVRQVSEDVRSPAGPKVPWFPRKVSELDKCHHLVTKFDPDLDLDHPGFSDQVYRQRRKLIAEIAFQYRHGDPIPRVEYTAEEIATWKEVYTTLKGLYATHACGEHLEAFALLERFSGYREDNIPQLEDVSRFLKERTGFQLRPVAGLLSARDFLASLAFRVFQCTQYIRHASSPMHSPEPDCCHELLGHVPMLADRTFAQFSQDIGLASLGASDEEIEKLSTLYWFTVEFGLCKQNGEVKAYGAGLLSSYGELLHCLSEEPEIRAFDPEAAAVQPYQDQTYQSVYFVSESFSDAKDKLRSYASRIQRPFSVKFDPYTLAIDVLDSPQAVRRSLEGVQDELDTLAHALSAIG
Procedure: (§1) The activity of purified PAH, TH, TPH1, and TPH2 was measured using high-performance liquid chromatography (HPLC) as previously described.[50],[56],[57]
TH activities were performed in a standard reaction mixture containing 40 mM Hepes (pH 7.0), 0.1 mg/mL catalase, 10 μM ferrous ammonium sulfate, and 50 μM L-Tyr. Compounds were incubated with TH (0.01 mg/mL) in the reaction mixture for 10 min on ice. The enzymatic reaction was initiated by adding 200 μM BH4 and 2 mM DTT (final concentrations) and stopped by precipitation with 2% (v/v) acetic acid in ethanol after 5 min at 37 °C. The product, L-DOPA, was quantified by HPLC utilizing a fluorescence monitor set at 281 and 314 nm for excitation and emission, respectively.
GraphPad Prism (version 10; La Jolla, CA) was used for analyzing the enzyme inhibition data.

HDAC 1 = conditions: human recombinant HDAC, cited from earlier work
human TPH2 = target: T4, human TPH2 (Homo sapiens, UniProt Q8IWU9); assay: TPH2 enzyme activity assay (HPLC); type: biochemical; conditions: best-fit IC50 (± SE), nonlinear regression; N.A. = no activity
T4 construct: Full-length human TH isoform 1 (TH1), human PAH, human TPH2, and doubly truncated human TPH1; MBP (cleaved yes); made in house; host or cells: E. coli BL21(DE3)
T4 sequence (Q8IWU9 1-490): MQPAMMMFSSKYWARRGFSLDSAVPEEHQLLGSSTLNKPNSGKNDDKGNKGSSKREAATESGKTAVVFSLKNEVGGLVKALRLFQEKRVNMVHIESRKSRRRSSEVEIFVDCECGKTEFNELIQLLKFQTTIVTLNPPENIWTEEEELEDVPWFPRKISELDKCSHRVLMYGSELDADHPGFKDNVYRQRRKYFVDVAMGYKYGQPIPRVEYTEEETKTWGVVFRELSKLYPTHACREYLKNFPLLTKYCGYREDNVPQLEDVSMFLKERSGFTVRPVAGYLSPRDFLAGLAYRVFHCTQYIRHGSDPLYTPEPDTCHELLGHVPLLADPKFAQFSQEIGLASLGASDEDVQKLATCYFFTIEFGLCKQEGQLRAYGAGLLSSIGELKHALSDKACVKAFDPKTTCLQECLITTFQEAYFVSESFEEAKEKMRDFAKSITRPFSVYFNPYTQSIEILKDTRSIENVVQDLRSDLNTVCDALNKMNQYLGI

TPH1 = target: T5, TPH1 (Homo sapiens, UniProt P17752); assay: Differential scanning fluorimetry (DSF) thermal stability assay; type: binding; conditions: DSF, 50 μM compound
T5 construct: doubly truncated human TPH1 (ΔNH102-ΔCOOH402); made in house; host or cells: E. coli BL21(DE3)
T5 sequence (P17752 102-402): as the sequence (P17752 102-402, stated change not applied) above
Procedure: A fluorescence-based thermal stability assay (differential scanning fluorimetry, DSF) was used for testing the effects of HDIs on the thermal stability of TPH1.
For initial high throughput screening (HTS), compounds were prepared at a concentration of 10 mM (in some cases, 5 mM) in 100% DMSO. Initial HTS screening was performed on TPH1 with and without compounds using a LightCycler 480 Real-Time PCR System (Roche Applied Science). TPH1 was diluted to 0.075 mg/mL in 50 mM Tris pH 8.0, 200 mM NaCl, 0.5 mM TCEP, and 5% glycerol with 5x SYPRO Orange. Compounds were added to a final concentration of 50 μM. Controls with 0.5% DMSO were performed on each 384-well microplate. Unfolding curves were recorded from 20 to 95 °C at a scan rate of 2 °C/min and monitored at excitation = 465 nm and emission = 610 nm. Selected hits were validated further by serial dilution from 250 μM to 122 nM, keeping the DMSO concentration constant at 2%.
DSF data were analyzed using HTSDSF Explorer.[55] Melting temperature (Tm) was calculated from the maximum value of the first derivative of the unfolding curve. ΔTm (Tm with compound–averaged Tm in DMSO controls) was plotted for all validated curves and a threshold of 2 °C was set (typically, cutoff at ΔTm = 3-fold the SD of the Tm of the DMSO control).
Preliminary binding constants (KD) were calculated by fitting data to the equation [drawing 1] where ΔH0 is the enthalpy of the unfolding of the protein in the presence of ligand ([L]), and R is the gas constant.

endogenous PAH = target: T6, endogenous PAH (Homo sapiens, UniProt P00439); assay: Cellular thermal shift assay (CETSA) in HepG2 cells; type: cell-based; conditions: 50 μM compound, 1 h, vs DMSO
T6 construct: increased melting temperatures (ΔTm) of endogenous PAH; endogenous in cells; host or cells: HepG2
T6 sequence (P00439 1-452): T1 sequence (P00439 1-452)
Procedure: Then, cells were washed, harvested using trypsin, and pelleted by centrifugation. The pellet was washed twice with PBS supplemented with complete EDTA-free protease inhibitor cocktail (Roche) and divided into 14 aliquots of 35 μL containing 800,000 cells. Cells were then frozen in liquid nitrogen and thawed at 25 °C three times, and each aliquot was heated to a defined temperature by applying a gradient between 39 °C and 69 °C in a thermocycler (peQSTAR, PeQlab; 16-well gradient, 54 °C ± 15 °C). After 3 min incubation, aliquots were snap frozen in liquid nitrogen and thawed at 25 °C. Cell lysates were centrifuged at 20,000 g (4 °C) for 20 min. Supernatants were mixed with 5x loading buffer, heated to 70 °C for 5 min and analyzed by Western blotting. Chemoluminescence signals were recorded with a FusionSL, Vilber Lourmat (peQlab) and quantified using FusionCapt Advance FX7 16.01c software. Calculation of ΔTm was conducted using the Boltzmann sigmoidal model in GraphPad prism 7.01.
Cell lysates used for Western blot analysis were prepared as described in the Methods section (Cellular Thermal Shift Assay). […] Chemoluminescence signals were recorded with an FusionSL, Vilber Lourmat (peQlab) and quantified using FusionCapt Advance FX7 16.01c software.

HDAC 8 = conditions: human recombinant HDAC, cited from earlier work
[2] = test system: AAAHs (PAH, TH, TPH1, TPH2); assay: Enzyme activity assays, statement over all four AAAHs; type: biochemical, human
Procedure: as §1
TPH1 enzymatic activity assays were performed with the selected hits from the DSF screening in the presence and absence of 50 μM of each compound. The final concentration of DMSO was 0.5% (v/v), and control experiments used 0.5% DMSO in the absence of ligand. Assays were performed in a standard reaction mixture containing 40 mM Hepes pH 7.0, 200 mM NaCl, 0.1 mg/mL catalase, 0.5 mg/mL BSA, 10 μM ferrous ammonium sulfate, and 30 μM L-tryptophan (L-Trp). Compounds were incubated with TPH1 (0.02 mg/mL) in the reaction mixture for 10 min on ice. The enzymatic reaction was initiated by adding 200 μM BH4 and 2 mM DTT (final concentrations) and stopped by precipitation with 2% (v/v) acetic acid in ethanol after 3 min at 37 °C. The product, 5-hydroxy-tryptophan (5-OH-Trp), was quantified by HPLC utilizing a fluorescence monitor set at 302 and 350 nm for excitation and emission, respectively. […]. […]
PAH activities were performed in a standard reaction mixture containing 100 mM Hepes (pH 7.0), 0.04 mg/mL catalase, 0.05% BSA, 10 μM ferrous ammonium sulfate, and 1 mM phenylalanine (Phe). […] The product, L-Tyrosine (L-Tyr), was quantified by HPLC utilizing a fluorescence monitor set at 274 and 304 nm for excitation and emission, respectively. […]

serotonin transporter = test system: serotonin transporter; set-up: method as in PMID 21785940; conditions: neuroblastoma cells; cited from earlier work
dopamine transporter = test system: dopamine transporter; set-up: method as in PMID 21785940; conditions: neuroblastoma cells; cited from earlier work

O=C(/C=C/c1ccccc1Oc1ccc(Cl)cc1)NO [TB57, (2E)-3-[2-(4-Chlorophenoxy)phenyl]-N-hydroxy-2-propenamide]
IC50 (human PAH; best-fit IC50 (± SE), nonlinear regression, N.A. = no activity, read-out: IC50 (μM) PAH): 1.55 µM and 1.6 µM
selectivity toward PAH in comparison to TPH1 (human PAH; from IC50 values of Table 2): 30 fold
selectivity toward PAH in comparison to TPH2 (human PAH; from IC50 values of Table 2): 125 fold
IC50 [1]: 49.6 µM
IC50 (HDAC 6): 11.4 ± 2.5 µM
IC50 (μM) TH (human TH isoform 1 (TH1)): no inhibition
IC50 (HDAC 1; ref 6 (10.1002/cmdc.201800238)): 13.4 ± 2.4 µM
IC50 (human TPH2): 195 µM
ΔTm (°C) ± SD (°C), primary screen (TPH1; vs averaged Tm of 0.5% DMSO controls): -3.4 ± 0.1 °C
ΔTm of endogenous PAH (CETSA) (endogenous PAH): 4.8 °C
IC50 (HDAC 8; ref 6 (10.1002/cmdc.201800238)): 0.15 ± 0.03 µM

Nc1ccccc1NC(=O)c1ccc(CNc2nccc(-c3cccnc3)n2)cc1 [mocetinostat, reference compound]
IC50 (HDAC 1; ref 2 (PMID: 23829483)): 0.098 ± 0.055 µM
inhibitory activity against all the AAAHs [2]: completely inactive
Tm (°C) ± SD (°C), primary screen (TPH1; 0.075 mg/mL TPH1, 0.5% DMSO, three independent measurements (a: duplicates)): 54.5 ± 0.2 °C
ΔTm at 50 µM (TPH1; vs averaged Tm of 0.5% DMSO controls, read-out: ΔTm (°C) ± SD (°C), primary screen): -0.8 °C
IC50 (HDAC 8; ref 2 (PMID: 23829483)): 35 ± 4.4 µM

CC(/C=C/C(=O)NO)=C\[C@@H](C)C(=O)c1ccc(N(C)C)cc1 [trichostatin A]
increase of serotonin transporter expression (serotonin transporter): 15 fold
increase of dopamine transporter expression (dopamine transporter): 45 fold
